Legend:
[1] = system: Magnaporthe grisea (Pyricularia oryzae—PYRIOR); assay: microbe, parasite or virus in culture; type: cell-based; conditions: Pyricularia oryzae, read-out: PYRIOR in vitro Growth Inhibition
[2] = system: Rhizoctonia solani (RHIZSO); assay: microbe, parasite or virus in culture; type: cell-based; conditions: Rhizoctonia solani, read-out: RHIZSO in vitro Growth Inhibition
[3] = system: Mycosphaerella graminicola (Septoria tritici—SEPTTR); assay: In vitro fungal growth inhibition, Mycosphaerella graminicola (SEPTTR); type: cell-based; conditions: Zymoseptoria tritici; 25 ppm in growth medium; read-out: SEPTTR in vitro Growth Inhibition
[4] = system: Stagonospora nodorum (Leptosphaeria nodorum—LEPTNO); assay: In vitro fungal growth inhibition, Stagonospora nodorum (LEPTNO); type: cell-based; conditions: Leptosphaeria; 25 ppm in growth medium; read-out: LEPTNO in vitro Growth Inhibition
Ustilago maydis (USTIMA) = assay: microbe, parasite or virus in culture; type: cell-based; conditions: Mycosarcoma maydis, read-out: USTIMA in vitro Growth Inhibition
[5] = system: Phytophthora infestans (PHYTIN); assay: microbe, parasite or virus in culture; type: cell-based; conditions: Phytophthora infestans, read-out: PHYTIN in vitro Growth Inhibition
[6] = system: Phytophthora infestans—PHYTIN; assay: whole plant or invertebrate; type: in vivo; conditions: Phytophthora, in Solanum lycopersicum, 24 h, read-out: PHYTIN in vivo 1 Day Protectant
[7] = system: Puccinia recondita—PUCCRT; assay: Brown Rust of Wheat, in vivo whole plant, 24 Hour Protectant; conditions: Puccinia; 100 ppm spray, wheat, 24 hour protectant; control of fungal infection vs untreated plants; read-out: PUCCRT in vivo 1 Day Protectant
Erysiphe graminis—ERYSGT = assay: Powdery Mildew of Wheat, in vivo whole plant, 24 Hour Protectant; conditions: Erysiphe; 100 ppm spray, wheat, 24 hour protectant; control of fungal infection vs untreated plants; read-out: ERYSGT in vivo 1 Day Protectant
Septoria tritici—SEPTTR = assay: Leaf Blotch of Wheat, in vivo whole plant, 24 Hour Protectant; conditions: Zymoseptoria tritici, 24 h, 100 ppm spray, wheat, 24 hour protectant; control of fungal infection vs untreated plants; read-out: SEPTTR in vivo 1 Day Protectant
[8] = system: Leptosphaeria nodorum—LEPTNO; assay: Glume Blotch of Wheat, in vivo whole plant, 24 Hour Protectant; conditions: 100 ppm spray, wheat, 24 hour protectant, control of fungal infection vs untreated plants; for pest or weed control at 100 ppm: Leptosphaeria, read-out: LEPTNO in vivo 1 Day Protectant

SMILES | inhibition at 25 ppm [1] | inhibition at 25 ppm [2] | inhibition at 25 ppm [3] | inhibition at 25 ppm [4] | inhibition at 25 ppm (Ustilago maydis (USTIMA)) | inhibition at 25 ppm [5] | pest or weed control at 100 ppm [6] | pest or weed control at 100 ppm [7] | pest or weed control at 100 ppm (Erysiphe graminis—ERYSGT) | pest or weed control at 100 ppm (Septoria tritici—SEPTTR) | LEPTNO in vivo 1 Day Protectant [8] | melting point | pest or weed control at 100 ppm [8]
COc1ccnc(C(=O)Nc2ccc(Sc3cccc(C(F)(F)F)c3)cc2)c1O [Compound 445] | > 80% | < 80% | > 80% | < 80% | > 80% | < 80% | < 25% | 25 to 74% | 25 to 74% | 25 to 74% | + + | 167 to 169 °C | –
COc1ccnc(C(=O)Nc2cccc(C(=O)Nc3ccc(C(F)(F)F)cc3)c2)c1O [Compound 450] | < 80% | < 80% | < 80% | < 80% | < 80% | < 80% | < 25% | < 25% | < 25% | 25 to 74% | – | > 260 °C | 25 to 74%
COc1ccnc(C(=O)Nc2ccc(C(=O)Oc3cccc(C(F)(F)F)c3)cc2)c1O [Compound 451] | > 80% | < 80% | < 80% | < 80% | < 80% | < 80% | < 25% | 25 to 74% | < 25% | < 25% | – | 196 °C (dec.) | 25 to 74%
COc1ccnc(C(=O)Nc2ccc(NC(=O)c3cccc(C(F)(F)F)c3)cc2)c1O [Compound 453] | < 80% | < 80% | < 80% | < 80% | < 80% | < 80% | < 25% | < 25% | < 25% | 25 to 74% | – | 240 to 242 °C | 25 to 74%
COc1ccnc(C(=O)Nc2cccc(NC(=O)c3ccc(C(F)(F)F)cc3)c2)c1O [Compound 454] | < 80% | < 80% | < 80% | < 80% | < 80% | < 80% | < 25% | < 25% | < 25% | 25 to 74% | – | 240 to 242 °C | 25 to 74%
COc1ccnc(C(=O)Nc2ccc(OC3CC(C)(C)CC(C)(C)C3)cc2)c1O [Compound 458] | < 80% | < 80% | < 80% | > 80% | < 80% | < 80% | < 25% | 25 to 74% | < 25% | < 25% | + + | 141 to 142 °C | –
COc1ccnc(C(=O)Nc2ccc(OC3CC(C)(C)OC(C)(C)C3)cc2)c1O [Compound 459] | < 80% | < 80% | < 80% | < 80% | < 80% | < 80% | < 25% | 25 to 74% | 25 to 74% | 25 to 74% | + + | 161 to 163 °C | –
